This is an account of results in article PMC7888603 (PLoS Pathogens, 2021).

In data set [1] the test system is pseudotyped WT-EBOV. The data set is described as follows: microbe, parasite or virus in culture. It counts as cell-based, Ebola virus.
The test system of data set [2] is pseudotyped WT-MARV. The data set is described as follows: microbe, parasite or virus in culture. It is filed as cell-based, Marburg virus. The note with it: for IC50: Human immunodeficiency virus 1, A549, read-out: IC50 (µM) (MARV).
Data set [3] is described as follows: in vitro. Particulars: human.
For data set [4], the system named is Ebola. The note with it: cited from earlier work.
In data set [5] the test system is lysosomes. The note with it: cited from earlier work.
Data set [6] deals with EBOV GP. The note with it: cited from earlier work.
In data set [7] the target is RAVN GPΔmucin (Lake Victoria marburgvirus, UniProt Q1PDC7). The note with it: 200 µM.
Data set [8] has as its system pseudotyped WT-MARV. The data set is described as follows: organism not typed. It counts as cell-based, Marburg virus. The note with it: read-out: MARV Inhibition (%).
Data set [9] deals with lysotracker red accumulation in lysosomes, A549 cells. The data set is described as follows: cells. It counts as cell-based, Human. Particulars: for IC50: Homo sapiens, A549, read-out: IC50, inhibition of lysotracker red accumulation in lysosomes.
For data set [10], the system named is pseudotyped WT-EBOV. The data set is described as follows: microbe, parasite or virus in culture. It counts as cell-based, Ebola virus. The note with it: Zaire ebolavirus, read-out: EBOV Inhibition (%).
Data set [11] concerns pseudotyped vesicular stomatitis virus (VSV). It is filed as cell-based.
Data set [12] concerns A549 cells.
Data set [13] relates to pseudotyped influenza H5N1. It is filed as cell-based.
Data set [14] deals with EBOV HR2 peptide ([…]) (Zaire ebolavirus, UniProt Q05320). It is filed as binding, Ebola virus. Particulars: pH 5.2.
Setting [15] is: Zaire ebolavirus, A549, read-out: IC50 (µM) (EBOV).

Entries after “also recorded” stand apart in the source; their conditions may differ. Like-named read-outs stand apart in the source and are kept apart here.

`CC(=O)N[C@@H](CC(C)C)C(=O)N[C@@H](CC(C)C)C(=O)N[C@H](C=O)CCCNC(=N)N` [Leupeptin]: the IC50 in [1] (setting [15]) was found to be 0.35 ± 0.07 µM; in [2], 0.6 ± 0.1 µM. Further, the CC50 in data set [3] is over 100 µM.
For the molecule `CNCCCN1c2ccccc2CCc2ccccc21` [desipramine], the “Ebola entry inhibition in screen of FDA approved drugs” value in data set [4] was “not Ebola entry inhibitors”. The accumulation in lysosomes entry in data set [5] is “accumulate in lysosomes”.
Consider `CC(C)COCC(CN(Cc1ccccc1)c1ccccc1)N1CCCC1` (stereo not drawn) [Bepridil], for which the IC50 in [1] (setting [15]) amounted to 1.6 ± 0.8 µM; in data set [2] it was 10 ± 2 µM. Also, the CC50 in data set [3] was 34.7 ± 4.6 µM. Further, in data set [6], the equilibrium dissociation constant (Kd) was 290 µM.
Regarding `CC(C)NCC(O)COc1cccc2ccccc12` (stereo not drawn) [propranolol], the “Ebola entry inhibition in screen of FDA approved drugs” value in data set [4] is “not Ebola entry inhibitors”. Besides, the accumulation in lysosomes entry in data set [5] is “accumulate in lysosomes”.
In the case of `CN(C)CCCN1c2ccccc2CCc2ccccc21` [Imipramine], the figures for the IC50 in data set [1] (setting [15]) and in data set [2] were 2.6 ± 0.1 µM and 6.4 ± 0.6 µM, respectively. This molecule also registered a CC50 in data set [3] of 76.3 ± 7.4 µM. Further, in data set [6], the dissociation constant (Kd) is 584 µM.
In the case of `CN(C)CCOc1ccc(/C(=C(/CCCl)c2ccccc2)c2ccccc2)cc1` [Toremifene], in data set [7], the “decrease in Tm of MARV (RAVN) GP” value was ~ 5 °C. For the same molecule, in [8], the inhibition at 0.625 µM is -3.12%, the inhibition at 1.25 µM was -0.5%, the inhibition at 2.5 µM is 23.1% and the inhibition at 5 µM was 71.2%. For the same molecule, the inhibition at 10 µM in data set [8] came to 99%. The concentration for half-maximal inhibition (IC50) in data set [9] worked out at 9.7 µM. In data set [1] (setting [15]), the IC50 came to 0.021 ± 0.009 µM. In addition, in data set [1] (Zaire ebolavirus, A549, read-out: Toremifene IC50 (µM)), the concentration for half-maximal inhibition (IC50) is 0.01 µM. For the same molecule, in data set [2], the “Toremifene at 10 µM (% Infection)” value is on record as 3% and the IC50 was 1.6 ± 0.6 µM. In [3], this molecule gave a CC50 of 26.9 ± 2.4 µM. Further, in data set [10], the inhibition at 0.0312 µM came out at 5.93%, the inhibition at 0.0625 µM stood at 21.8%, the inhibition at 0.125 µM was 41.2% and the inhibition at 0.25 µM was 66.6%. For the same molecule, the inhibition at 0.5 µM in data set [10] was determined as 88.5%. The “inhibition of pseudotyped vesicular stomatitis virus (VSV)” value in data set [11] is recorded as “no inhibition”.
For `Fc1ccc([C@@H]2CCNC[C@H]2COc2ccc3c(c2)OCO3)cc1` [Paroxetine], the concentration for half-maximal inhibition (IC50) in data set [1] (setting [15]) was 0.34 ± 0.05 µM; in data set [2] it was 3.1 ± 0.1 µM. In data set [3], the CC50 came to 23.1 ± 6.3 µM. Besides, the dissociation constant Kd in data set [6] is 650 µM.
In turn, `CN1[C@@H]2CC[C@H]1C[C@@H](OC(c1ccccc1)c1ccccc1)C2` [Benztropine] came in with a CC50 in data set [3] of 52.9 ± 6.1 µM.
As for `CCCCOc1cc(C(=O)NCCN(CC)CC)c2ccccc2n1` [Dibucaine], the IC50 in data set [1] (setting [15]) was 3.2 ± 0.2 µM; in data set [2] it was 6 ± 2 µM. This molecule displayed a CC50 in data set [3] of 67.1 ± 8 µM.
In the case of CA-074, the IC50 in data set [1] (read-out: IC50 (µM) (EBOV)) amounted to 32 ± 8 µM. The molecule further had a CC50 in [12] of over 100 µM.
With `CNCCC(Oc1ccc(C(F)(F)F)cc1)c1ccccc1` (stereo not drawn) [Fluoxetine], in data set [8], the inhibition at 0.625 µM was determined as 35.7%, the inhibition at 1.25 µM came out at 46.4%, the inhibition at 2.5 µM was 62% and the inhibition at 5 µM worked out at 74.4%. The inhibition at 10 µM in data set [8] amounted to 88.8%. In addition, the CC50 in data set [3] came out at 28.7 ± 0.1 µM. The “inhibition of pseudotyped influenza H5N1” value in data set [13] is reported as “no inhibition”. Besides, in data set [10], the inhibition at 0.625 µM was 6.94%, the inhibition at 1.25 µM came out at 21.4%, the inhibition at 2.5 µM was 44.8% and the inhibition at 5 µM stood at 55.7%. In [10], the inhibition at 10 µM is 79.2%. Besides, the “binding to EBOV HR2 peptide (NOESY)” value in [14] is on record as “intermolecular NOEs, highlighted by red arrows, are observed”. Also, the “inhibition of pseudotyped vesicular stomatitis virus (VSV)” value in data set [11] is listed as “no inhibition”.
`CCN(CC)CCCC(C)Nc1ccnc2cc(Cl)ccc12` (stereo not drawn) [chloroquine]: the concentration for half-maximal inhibition (IC50) in data set [9] turned out to be 3.3 µM.
Turning to `OCCOc1ccc(/C(=C(/CCCl)c2ccccc2)c2ccccc2)cc1` [Ospemifene], the “decrease in Tm of MARV (RAVN) GP” value in data set [7] is 2 °C. Also, the lysosome trapping entry in [9] is listed as “no trapping at any concentration; also recorded: no effect”. Besides, the half-maximal inhibitory concentration (IC50) in data set [1] (setting [15]) came to 19 ± 10 µM; in data set [2], 35 ± 3 µM. For the same molecule, the “loss of potency for MARV” value in data set [2] is reported as 35 fold. The CC50 in [3] (CC50 (µM)) came to 56 µM; in data set [12] (human), 57 µM.
Regarding `CN[C@H]1CC[C@@H](c2ccc(Cl)c(Cl)c2)c2ccccc21` [Sertraline], the CC50 in [3] was 22.6 ± 6.2 µM.
